Publication PMC9570995, “Design, Synthesis, and Biological Evaluation of Novel Dihydropyridine and Pyridine Analogs as Potent Human Tissue Nonspecific Alkaline Phosphatase Inhibitors with Anticancer Activity: ROS and DNA Damage-Induced Apoptosis” (Molecules, 2022)

Key:
Type in all cases: cell-based
[1] = tested on: Breast Cancer (MCF-7) Cells; assay: MTT cell viability assay, MCF-7; conditions: Homo sapiens
Source text: An MTT assay was used to determine the viability of the cells under examination in the desired medium. The mitochondrial dehydrogenase enzyme of the viable cells has a key role in the conversion of the yellow water-soluble substrate 3-(4,5-dimethylthiazol-2-y1)-2,5 diphenyl tetrazolium bromide (MTT) into a dark blue formazan product that is insoluble in water. The anticancer activity of the novel synthetic derivatives (4a–4k) was investigated through an MTT assay, with small modifications following the already published protocols against cancer cell lines (HeLa and MCF-7), using cisplatin as a reference drug. The cytotoxic effect of the tested compounds at 100 µM concentration was determined and represented as the percent growth inhibition compared with the untreated control cells. The first series comprised dihydropyridines analogous from 4a–4f with various substitution patterns on the phenyl ring. […] It is presumed that the 1-naphthyl containing compound 4c was locked in a configuration that is not favorable for an interaction with amino acid residues.
The anti-proliferative activity of the synthesized compounds was determined in MCF-7 and HeLa cells by an MTT cell viability assay, as described earlier. Briefly, we seeded 1 × 10^4 cells/well in a sterile 96-well culture microtiter plate and incubated them in a 5% CO2 incubator at 37 °C for 24 h. […] After 24 h, the cells were treated with 0.2 mg/mL of MTT reagent for 4 h. We added 10% acidified SDS (sodium dodecyl sulfate) solubilizing solution in propanol (1:1) to solubilize the formazan crystals. After 30 min at 37 °C, the plate was placed on a gyratory shaker to completely dissolve the formazan crystals. The plate was placed on a microplate reader to measure the optical density at 570 nm. The IC50 values were calculated from three independent experiments as previously reported.

normal BHK-21 cells = assay: MTT assay on normal cells; conditions: Mesocricetus auratus, rapidly growing non-cancerous cells
HeLa cells [2] = assay: Microscopic evaluation of ROS generation (H2DCF-DA); conditions: IC50 and 2 × IC50, versus control
Source text: The production of reactive oxygen species (ROS) has been an extensively researched topic in medicinal chemistry due to their involvement in numerous biochemical phases of health and disease. In a biological system, redox-sensitive fluorogenic materials such as 2′,7′-dichlorodihydrofluorescein-diacetate (DCFH2-DA) are commonly used to investigate the production of ROS during oxidative stress. It easily penetrates through the cell membrane, where esterase enzyme hydrolyzes the acetate group to a more hydrophilic group, which further oxidizes in the cytoplasmic region to give rise to a highly fluorescent product. In this study, the HeLa cells were used to investigate the production of ROS. The non-fluorescent material 2′,7′-dichlorodihydrofluorescein (DCFH2) converts into the fluorescent 2′,7′-dichlorofluorescein (DCF) under intracellular oxidative stress.
The production of reactive oxygen species (ROS) in compound 4d-treated HeLa cells was observed by applying a published protocol with some modifications. Cells at a density of 2 × 10^5 cells/well/mL were grown on round coverslips in a 24-well plate and kept in an incubator having humid 5% CO2 and 95% air at 37 °C. […] Cells were gently washed with PBS to remove excess dye, and images were captured at a magnification of 20× using excitation/emission filters at 488/530 nm with the help of a fluorescence microscope (Nikon ECLIPSE Ni–U).

HeLa cells [3] = assay: Fluorescence microscopy of cytotoxic and pro-apoptotic effect (PI and DAPI staining)
Source text: Change in the cellular morphology, initially characterized by cell shrinkage, chromatin condensation, and degradation of the nuclear and plasma membranes, was mostly observed in the programmed cell death. The propidium iodide (PI) staining agent is a fluorescent molecule that penetrates the cancerous cells through ruptured membranes and binds with DNA. Similarly, the subsequent image offers red nuclei contrary to the dark background that indicates the counts of dead cells. On the other hand, viable cells have an intact cell membrane that resists the penetration of the staining agent (PI). Herein, the anticancer potential of the highly functionalized small dihydropyridine scaffold 4d was noticed through the apoptosis induction pathway based on various mechanisms. […] The detachment of cells and appearance of yellow intense fluorescence images on the dark background specify the distribution of PI into the dying cells in a dose-reliant mode.
The apoptotic feature, particularly the condensation of nuclear material, was also observed through the fluorescence microscopic evaluation of compound 4d-treated HeLa cells using 4′,6-diamidino-2-phenylindole (DAPI) as a staining agent. […] The fluorescence intensity enhances many folds upon binding with DNA. The extent of damage in the compound-treated cells was easily measured through an increase in the fluorescence emission intensity. […]

N#CC1=C(N)N(Cc2ccccc2)C(N)=C(C#N)C1c1ccc2ccccc2c1 [Compound 4d, 2,6-Diamino-1-benzyl-4-(naphthalen-2-yl)-1,4-dihydropyridine-3,5-dicarbonitrile]
inhibition at 100 µM ([1]; MCF7, 100 µM, 24 h): 85.8%
IC50 ([1]; MCF7, unit given, read-out: Breast Cancer (MCF-7) Cells IC50 Values ± SEM): 38.7 ± 2.31 µM
IC50 (normal BHK-21 cells): 71.1 ± 3.18 µM
production of ROS (HeLa cells [2]): dose-dependent increase
IC50 (HeLa cells [3]; Homo sapiens, read-out: IC50 (cytotoxic potential, fluorescence microscopy with PI staining)): 28.3 µM
morphological change of treated cells (DAPI staining) (HeLa cells [3]; IC50 and 2 × IC50): cellular shrinkage and nuclear condensation in a dose-dependent manner
